In patent US11459339B2, “Biaryl derivative, preparation method thereof and pharmaceutical application thereof” (Abbisko Therapeutics Co., Ltd., priority 2018, dated 2022):

How the values were obtained:
[1] = target: interaction between PD-1 and PD-L1 expressed on cell surfaces (Homo sapiens (Human), UniProt Q9NZQ7); assay: Jurkat reporter gene cellular assay (Jurkat/NF-κB-luc/PD1 cells cocultured with Raji-PD-L1 cells, OKT-3 stimulation); assay type: cell-based; settings: NF-κB-luc reporter activation fold, 6 hrs; read-out: Cell Activity EC50
Method: B. Jurkat Reporter Gene Cellular Assay
The effect of compounds of the examples of the present invention and positive compounds on the interaction between PD-1 and PD-L1 expressed on cell surfaces, and the related influence on T cell functions, were determined by a Jurkat reporter gene cellular assay.
Briefly, the reporter gene plasmid of NF-κB-luc and the plasmid of human PD-1 were transfected into Jurkat cells to establish a stably transfected cell line capable of stably expressing both PD-1 and NF-κB-Luc reporter genes; the expression level of PD-1 on the cell surface was confirmed by flow cytometry: and the expression of the reporter gene was confirmed via the response of the reporter gene stimulated by OKT-3 and Raiji cells.
In addition, the plasmid of human PD-L1 was transfected into Raji cells to obtain a cell line capable of stably expressing PD-L1. Jurkat/NF-κB-luc/PD1 cells and Raji-PD-L1 cells were then cocultured and stimulated with OKT-3. On this basis, the compounds were added, and the enhancement of the signal pathway of T cell activation by the inhibitory effect of the compounds on the interaction between PD-1 and PD-L1 was evaluated by readings of reporter gene responses. The specific experimental process was as follows:
2. 20 μL of Raji-PD-L1 cell suspension was added to each well with 5*10^4 cells for each well, and was incubated in an incubator for 20 min;
3. 20 μL of Jurkat/NF-κb-luc/PD-1 cell suspension was added to each well with 5*10^4 cells for each well, and well mixed, and 6 hrs later, Bright-glo (Promega, E2620) was applied and plates were read on Envision;
4. the reading of each well treated with the compound was compared with the reading of each well treated with DMSO to obtain the activation fold of the compound; and
5. EC50 values of compounds and positive compounds of the examples of the present invention were determined by non-linear regression analysis of activation folds at different compound concentrations.

[2] = target: interaction between PD-1 and PD-L1 (Homo sapiens (Human), UniProt Q9NZQ7); assay: PD1-PDL1 HTRF binding activity test (Cisbio PD-1/PD-L1 binding assay kit); settings: read-out: PD1-PDL1 HTRF Binding Activity IC50
Method: A. PD1-PDL1 HTRF Binding Activity Test
The effect of compounds and positive compounds of the examples of the present invention on the interaction between PD-1 and PD-L1 was determined by the PD-1/PD-L1 binding assay kit from Cisbio (#64ICP01PEG or 64ICP01PEH). The detailed experimental process was as follows:
1. Pre-diluted compound solution, 4 μL of Tag1-PD-L1 and 4 μL of Tag2-PD1 were added to each well of a 384-well plate;
3. After incubated for 2 hrs at room temperature or overnight at 4° C., plates were read on Envision of Pelkin Elmer; and readings at 665 nm and 620 nm were recorded, and the ratio of the two readings was taken as a reading for each well;
4. The reading of each well after compound treatment was compared with the reading of DMSO treated wells to obtain the percent inhibition of the compound; and
5. IC50 values of compounds and positive compounds of the examples of the present invention were determined by non-linear regression analysis of percent inhibition at different compound concentrations.

interaction between PD-1 and PD-L1 expressed on cell surfaces, sequence (Q9NZQ7 19-290): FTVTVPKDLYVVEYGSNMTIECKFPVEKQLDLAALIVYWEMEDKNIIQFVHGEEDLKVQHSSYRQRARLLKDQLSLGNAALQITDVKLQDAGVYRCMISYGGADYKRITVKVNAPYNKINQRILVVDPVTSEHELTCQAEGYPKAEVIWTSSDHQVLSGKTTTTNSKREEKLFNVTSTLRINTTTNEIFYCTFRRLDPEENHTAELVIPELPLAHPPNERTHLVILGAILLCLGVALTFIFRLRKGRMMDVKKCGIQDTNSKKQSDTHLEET
interaction between PD-1 and PD-L1, sequence (Q9NZQ7 19-238): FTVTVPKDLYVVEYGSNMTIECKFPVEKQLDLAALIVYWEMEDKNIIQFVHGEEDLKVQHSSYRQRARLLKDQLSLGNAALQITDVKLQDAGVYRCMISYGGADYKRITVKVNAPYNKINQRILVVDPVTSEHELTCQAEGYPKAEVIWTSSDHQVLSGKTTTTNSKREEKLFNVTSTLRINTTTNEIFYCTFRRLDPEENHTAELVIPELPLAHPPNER

`COc1cc(C(=O)Nc2cccc(-c3cccc(NC(=O)c4cc(OC)c(CN5CC[C@H](O)C5)cn4)c3C)c2C)ncc1CN1CC[C@H](O)C1` [Example 48, N,N'-(2,2′-dimethyl-[1,1′-biphenyl]-3,3′-diyl)bis(5-(((S)-3-hydroxypyrrolidin-1-yl)methyl)-4-methoxypicolinamide)] gave an EC50 [1] of 102 nM and an IC50 [2] of 0.31 nM.
In the case of `COc1cc(C(=O)Nc2cccc(-c3cccc(NC(=O)c4cc(OC)c(CN5CCC(O)CC5)cn4)c3C)c2C)ncc1CN1CCC(O)CC1` [Example 49, N,N'-(2,2′-dimethyl-[1,1′-biphenyl]-3,3′-diyl)bis(5-((4-hydroxypiperidin-l-yl)methyl)-4-methoxypicolinamide)], the EC50 [1] is reported as 104 nM and the IC50 [2] is reported as 0.33 nM.
Compound `COc1cc(C(=O)Nc2cccc(-c3cccc(NC(=O)c4cc(OC)c(CN5CC[C@@H](OC)C5)cn4)c3C)c2C)ncc1CN1CC[C@@H](OC)C1` [Example 50, N,N'-(2,2′-dimethyl-[1,1′-biphenyl]-3,3′-diyl)bis(4-methoxy-5-(((R)-3-methoxypyrrolidin-1-yl)methyl)picolinamide)] has an EC50 [1] of 229 nM and an IC50 [2] of 0.33 nM.
Work on `COc1cc(C(=O)Nc2cccc(-c3cccc(NC(=O)c4cc(OC)c(CN5CC(OC)C5)cn4)c3C)c2C)ncc1CN1CC(OC)C1` [Example 51, N,N'-(2,2′-dimethyl-[1,1′-biphenyl]-3,3′-diyl)bis(4-methoxy-5-((3-methoxyazetidin-1-yl)methyl)picolinamide)] yielded an EC50 [1] of 288 nM and an IC50 [2] of 0.22 nM.
With `COc1cc(C(=O)Nc2cccc(-c3cccc(NC(=O)c4cc(OC)c(CN5CC(C)(OC)C5)cn4)c3C)c2C)ncc1CN1CC(C)(OC)C1` [Example 52, N,N'-(2,2′-dimethyl-[1,1′-biphenyl]-3,3′-diyl)bis(4-methoxy-5-((3-methoxy-3-methylazetidin-1-yl)methyl)picolinamide)] the EC50 [1] was 508 nM and the IC50 [2] was 0.4 nM.
In the case of `COc1cc(C(=O)Nc2cccc(-c3cccc(NC(=O)c4cc(OC)c(CN[C@H]5C[C@@H](O)C5)cn4)c3C)c2C)ncc1CN[C@H]1C[C@@H](O)C1` [Example 53, N,N'-(2,2′-dimethyl-[1,1′-biphenyl]-3,3′-diyl)bis(5-((((1s,3s)-3-hydroxycyclobutyl)amino)methyl)-4-methoxypicolinamide)], the EC50 [1] is reported as 52 nM and the IC50 [2] is reported as 0.15 nM.
For `COc1cc(C(=O)Nc2cccc(-c3cccc(NC(=O)c4cc(OC)c(CNC5COC5)cn4)c3C)c2C)ncc1CNC1COC1` [Example 54, N,N'-(2,2′-dimethyl-[1,1′-biphenyl]-3,3′-diyl)bis(4-methoxy-5-((oxetan-3-ylamino)methyl)picolinamide)], the EC50 [1] was 4770 nM and the IC50 [2] was 0.21 nM.
For `COc1cc(C(=O)Nc2cccc(-c3cccc(NC(=O)c4cc(OC)c(CN[C@H]5CCOC5)cn4)c3C)c2C)ncc1CN[C@H]1CCOC1` [Example 55, N,N'-(2,2′-dimethyl-[1,1′-biphenyl]-3,3′-diyl)bis(4-methoxy-5-((((S)-tetrahydrofuran-3-yl)amino)methyl)picolinamide)], the EC50 [1] was 82 nM and the IC50 [2] was 0.4 nM.
`COc1cc(C(=O)Nc2cccc(-c3cccc(NC(=O)c4cc(OC)c(CN[C@@H]5CCOC5)cn4)c3C)c2C)ncc1CN[C@@H]1CCOC1` [Example 56, N,N'-(2,2′-dimethyl-[1,1′-biphenyl]-3,3′-diyl)bis(4-methoxy-5-((((R)-tetrahydrofuran-3-yl)amino)methyl)picolinamide)] showed an EC50 [1] of 172 nM and an IC50 [2] of 0.64 nM.
`COc1cc(C(=O)Nc2cccc(-c3cccc(NC(=O)c4cc(OC)c(CN5CC6(COC6)C5)cn4)c3C)c2C)ncc1CN1CC2(COC2)C1` [Example 58, N,N'-(2,2′-dimethyl-[1,1′-biphenyl]-3,3′-diyl)bis(5-((2-oxa-6-azaspiro[3.3]heptan-6-yl)methyl)-4-methoxypicolinamide)] showed an EC50 [1] of 625 nM and an IC50 [2] of 0.22 nM.
Compound `COc1cc(C(=O)Nc2cccc(-c3cccc(NC(=O)c4cc(OC)c(CNC[C@@H](O)CC(=O)O)cn4)c3C)c2C)ncc1CNC[C@@H](O)CC(=O)O` [Example 59] has an EC50 [1] of 70 nM and an IC50 [2] of 0.31 nM.
